The values that follow come from patent publication US9328099B2, “Cyanomethylpyrazole carboxamides as janus kinase inhibitors” (Merck Sharp & Dohme Corp., priority 2011, dated 2016).

Bounds are passed on as bounds.

The target of one experiment is JAK1 (Homo sapiens (Human), UniProt P23458). The experiment in a line: Jak Biochemical HTRF Assay, JAK1. To be noted: HTRF biochemical assay, GST-tagged catalytic domain; top concentration tested […]; read-out: JAK1 IC50. The source says: (§1) Jak Biochemical HTRF Assay Protocol
(§2) Subsequent reagent additions employed an Agilent Bravo.
In general terms: TR-FRET usually uses a lanthanide donor and a delayed reading to cut background.

The target of the next experiment is JAK2 (Homo sapiens (Human), UniProt O60674). Briefly: Jak Biochemical HTRF Assay, JAK2. To be noted: HTRF biochemical assay, GST-tagged catalytic domain; top concentration tested […].
From the text: as §1, §2

Sequence of JAK2 (O60674 849-1124): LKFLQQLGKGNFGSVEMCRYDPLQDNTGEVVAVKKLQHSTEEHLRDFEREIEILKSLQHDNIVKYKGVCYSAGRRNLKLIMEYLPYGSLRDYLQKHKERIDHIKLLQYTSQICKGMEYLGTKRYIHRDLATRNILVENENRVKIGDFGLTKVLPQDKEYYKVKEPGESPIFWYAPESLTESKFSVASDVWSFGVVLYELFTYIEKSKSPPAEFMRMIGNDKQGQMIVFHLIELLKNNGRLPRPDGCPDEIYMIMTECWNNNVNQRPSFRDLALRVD
Sequence of JAK1 (P23458 875-1153): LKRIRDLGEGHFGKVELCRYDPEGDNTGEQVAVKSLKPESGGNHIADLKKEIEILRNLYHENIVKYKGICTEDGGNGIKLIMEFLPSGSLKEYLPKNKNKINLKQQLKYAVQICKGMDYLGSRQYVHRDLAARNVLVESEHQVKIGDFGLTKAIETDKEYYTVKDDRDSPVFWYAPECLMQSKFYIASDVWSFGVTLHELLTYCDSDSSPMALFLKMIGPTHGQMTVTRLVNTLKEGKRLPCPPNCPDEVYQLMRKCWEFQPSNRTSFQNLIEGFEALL

On to `N#CCC1(n2cc(C(N)=O)c(Nc3ccnc(F)c3)n2)CCN(Cc2cccc(Cl)c2)CC1` [Example 22-61, 1-[1-(3-chlorobenzyl)-4-(cyanomethyl)piperidin-4-yl]-3-[(2-fluoropyridin-4-yl)amino]-1H-pyrazole-4-carboxamide], for which the values for the IC50 at JAK1 and against JAK2 were 0.4 nM and 10 nM, respectively.
The matching figures for `CN1CCC(COC(=O)N2CCC(CC#N)(n3cc(C(N)=O)c(Nc4ccccc4)n3)CC2)CC1` [Example 30-44, (1-methylpiperidin-4-yl)methyl 4-[4-carbamoyl-3-(phenylamino)-1H-pyrazol-1-yl]-4-(cyanomethyl)piperidine-1-carboxylate]: 11 nM and 318 nM.
`N#CCC1(n2cc(C(N)=O)c(Nc3ccccc3)n2)CCN(C(=O)OCc2ccccc2F)CC1` [Example 30-33, 2-fluorobenzyl 4-[4-carbamoyl-3-(phenylamino)-1H-pyrazol-1-yl]-4-(cyanomethyl)piperidine-1-carboxylate]: the half-maximal inhibitory concentration (IC50) – broadly, the concentration at which inhibition is half-maximal – amounted to 2 nM at JAK1 and 40 nM against JAK2.
As to `N#CCC1(n2cc(C(N)=O)c(Nc3ccnc(F)c3)n2)CCC(Nc2cc(F)ccc2F)CC1` (stereo not drawn) [Example 40-10, Cis or trans 1-{1-(cyanomethyl)-4-[(2,5-difluorophenyl)amino]cyclohexyl}-3-[(2-fluoropyridin-4-yl)amino]-1H-pyrazole-4-carboxamide], the IC50 amounted to 14 nM on JAK1 and 355 nM against JAK2.
As for `Cc1ccc(NC(=O)N2CC(CC#N)(n3cc(C(N)=O)c(Nc4ccccc4)n3)C2)cc1F` [Example 38-37, 1-{3-(cyanomethyl)-1-[(3-fluoro-4-methylphenyl)carbamoyl]azetidin-3-yl}-3-(phenylamino)-1H-pyrazole-4-carboxamide], the IC50 was determined as 8 nM on JAK1 and 114 nM against JAK2.
Turning to `N#CCC1(n2cc(C(N)=O)c(Nc3ccccc3)n2)CCN(C(=O)Cc2ccc(C(F)(F)F)cc2)CC1` [Example 34-30, 1-[4-(cyanomethyl)-1-{[4-(trifluoromethyl)phenyl]acetyl}piperidin-4-yl]-3-(phenylamino)-1H-pyrazole-4-carboxamide], the IC50 on JAK1 came to 35 nM; against JAK2, 363 nM.
As to `Cc1ccc(C)c(NC(=O)N2CC(CC#N)(n3cc(C(N)=O)c(Nc4ccccc4)n3)C2)c1` [Example 38-16, 1-{3-(cyanomethyl)-1-[(2,5-dimethylphenyl)carbamoyl]azetidin-3-yl}-3-(phenylamino)-1H-pyrazole-4-carboxamide], the figures for the IC50 on JAK1 and against JAK2 were 7 nM and 111 nM, respectively.
On to `N#CCC1(n2cc(C(N)=O)c(Nc3ccc(F)cc3)n2)CCC(Nc2ccccc2)CC1` (stereo not drawn) [Example 40-96, Cis or trans 1-[1-(cyanomethyl)-4-(phenylamino)cyclohexyl]-3-[(4-fluorophenyl)amino]-1H-pyrazole-4-carboxamide], for which the IC50 was determined as 0.09 nM at JAK1 and 2 nM against JAK2.
Regarding `N#CCC1(n2cc(C(N)=O)c(Nc3ccc(F)cc3)n2)CCC(N2Cc3ccccc3C2)CC1` (stereo not drawn) [Example 40-90, Cis or trans 1-[1-(cyanomethyl)-4-(1,3-dihydro-2H-isoindol-2-yl)cyclohexyl]-3-[(4-fluorophenyl)amino]-1H-pyrazole-4-carboxamide], the IC50 at JAK1 amounted to 9 nM; against JAK2, 84 nM.
The matching figures for `CC(C)(C)OC(=O)N1CCC(CC#N)(n2cc(C(N)=O)c(Nc3cc(F)cc(F)c3)n2)CC1` [Example 12-3, tert-butyl 4-{4-carbamoyl-3-[(3,5-difluorophenyl)amino]-1H-pyrazol-1-yl}-4-(cyanomethyl)piperidine-1-carboxylate]: 2 nM and 42 nM.
`CC(C)(C)OC(=O)N1CCC(CC#N)(n2cc(C(N)=O)c(Nc3ccc(F)cc3)n2)CC1` [Example 9-3, tert-butyl 4-{4-carbamoyl-3-[(4-fluorophenyl)amino]-1H-pyrazol-1-yl}-4-(cyanomethyl)piperidine-1-carboxylate]: the IC50 is 0.8 nM on JAK1 and 21 nM on JAK2.
Regarding `CCc1cccc(NC(=O)N2CC(CC#N)(n3cc(C(N)=O)c(Nc4ccccc4)n3)C2)c1` [Example 38-35, 1-{3-(cyanomethyl)-1-[(3-ethylphenyl)carbamoyl]azetidin-3-yl}-3-(phenylamino)-1H-pyrazole-4-carboxamide], the results for the IC50 at JAK1 and against JAK2 were 8 nM and 144 nM, respectively.
In the case of `CC(C)(C)OC(=O)N1CCC(CC#N)(n2cc(C(N)=O)c(Nc3ccc(S(C)(=O)=O)cc3)n2)C1` (stereo not drawn) [Example 2-16, tert-butyl 3-(4-carbamoyl-3-{[4-(methylsulfonyl)phenyl]amino}-1H-pyrazol-1-yl)-3-(cyanomethyl)pyrrolidine-1-carboxylate], the results for the IC50 on JAK1 and against JAK2 were 0.2 nM and 2 nM, respectively.
For the compound `N#CCC1(n2cc(C(N)=O)c(Nc3ccnc(F)c3)n2)CCN(Cc2cn3ccccc3n2)CC1` [Example 22-12, 1-[4-(cyanomethyl)-1-(imidazo[1,2-a]pyridin-2-ylmethyl)piperidin-4-yl]-3-[(2-fluoropyridin-4-yl)amino]-1H-pyrazole-4-carboxamide], the results for the IC50 on JAK1 and against JAK2 were 124 nM and over 1500 nM, respectively.
On to `CC1=NOC(CN2CCC(CC#N)(n3cc(C(N)=O)c(Nc4ccnc(F)c4)n3)CC2)C1` (stereo not drawn) [Example 22-42, 1-{4-(cyanomethyl)-1-[(3-methyl-4,5-dihydroisoxazol-5-yl)methyl]piperidin-4-yl}-3-[(2-fluoropyridin-4-yl)amino]-1H-pyrazole-4-carboxamide], for which the IC50 stood at 18 nM at JAK1 and 582 nM against JAK2.
On to `CSCCCN1CCC(CC#N)(n2cc(C(N)=O)c(Nc3ccccc3)n2)CC1` [Example 21-15, 1-{4-(cyanomethyl)-1-[3-(methylsulfanyl)propyl]piperidin-4-yl}-3-(phenylamino)-1H-pyrazole-4-carboxamide], for which the IC50 was 12 nM on JAK1 and 242 nM against JAK2.
For `CC(C)[C@H](O)C(=O)N1CCC(CC#N)(n2cc(C(N)=O)c(Nc3ccnc(F)c3)n2)CC1` [Example 34-47, 1-{4-(cyanomethyl)-1-[(2S)-2-hydroxy-3-methylbutanoyl]piperidin-4-yl}-3-[(2-fluoropyridin-4-yl)amino]-1H-pyrazole-4-carboxamide], the IC50 at JAK1 is 2 nM; against JAK2, 79 nM.
Turning to `CS(=O)(=O)c1ccc(Nc2nn(C3(CC#N)CCCCC3)cc2C(N)=O)cc1` [Example 2-14, 1-[1-(cyanomethyl)cyclohexyl]-3-{[4-(methylsulfonyl)phenyl]amino}-1H-pyrazole-4-carboxamide], the IC50 on JAK1 was 20 nM; at JAK2, 193 nM.
Consider `Cc1c[nH]c(CN2CCC(CC#N)(n3cc(C(N)=O)c(Nc4ccnc(F)c4)n3)CC2)n1` [Example 22-4, 1-{4-(cyanomethyl)-1-[(4-methyl-1H-imidazol-2-yl)methyl]piperidin-4-yl}-3-[(2-fluoropyridin-4-yl)amino]-1H-pyrazole-4-carboxamide], for which the IC50 at JAK1 came to 74 nM; at JAK2, 1180 nM.
Turning to `N#CCC1(n2cc(C(N)=O)c(Nc3ccccc3)n2)CN(C(=O)Nc2cc(F)ccc2F)C1` [Example 38-10, 1-{3-(cyanomethyl)-1-[(2,5-difluorophenyl)carbamoyl]azetidin-3-yl}-3-(phenylamino)-1H-pyrazole-4-carboxamide], the figures for the IC50 at JAK1 and at JAK2 were 5 nM and 158 nM, respectively.
For `CC(C)(C)OC(=O)N1CCC(CC#N)(n2cc(C(N)=O)c(Nc3cncc(F)c3)n2)CC1` [Example 9-35, tert-butyl 4-{4-carbamoyl-3-[(5-fluoropyridin-3-yl)amino]-1H-pyrazol-1-yl}-4-(cyanomethyl)piperidine-1-carboxylate], the IC50 was 1 nM on JAK1 and 16 nM on JAK2.
The like results for `N#CCC1(n2cc(C(N)=O)c(Nc3ccnc(F)c3)n2)CCN(C(=O)C2CC(F)(F)C2)CC1` [Example 34-53, 1-{4-(cyanomethyl)-1-[(3,3-difluorocyclobutyl)carbonyl]piperidin-4-yl}-3-[(2-fluoropyridin-4-yl)amino]-1H-pyrazole-4-carboxamide] were, in that order, 0.3 nM and 15 nM.
Consider `Cn1cc(-c2ccc(Nc3nn(C4(CC#N)CCN(C(=O)OCC(F)(F)F)CC4)cc3C(N)=O)cn2)cn1` [Example 11-1, 2,2,2-Trifluoroethyl 4-(4-carbamoyl-3-{[6-(1-methyl-1H-pyrazol-4-yl)pyridin-3-yl]amino}-1H-pyrazol-1-yl)-4-(cyanomethyl)piperidine-1-carboxylate], for which the IC50 on JAK1 stood at 0.03 nM; against JAK2, 0.5 nM.
As for `CC(C)Oc1ccc(CN2CCC(CC#N)(n3cc(C(N)=O)c(Nc4ccccc4)n3)CC2)cc1` [Example 21-27, 1-{4-(cyanomethyl)-1-[4-(1-methylethoxy)benzyl]piperidin-4-yl}-3-(phenylamino)-1H-pyrazole-4-carboxamide], the results for the IC50 at JAK1 and against JAK2 were 36 nM and 809 nM, respectively.
With `Cc1ccccc1-c1cccc(Nc2nn(C3(CC#N)CCN(C(=O)OC(C)(C)C)CC3)cc2C(N)=O)c1` [Example 15-7, tert-butyl 4-{4-carbamoyl-3-[(2′-methylbiphenyl-3-yl)amino]-1H-pyrazol-1-yl}-4-(cyanomethyl)piperidine-1-carboxylate], the IC50 is 127 nM at JAK1 and 1480 nM against JAK2.
The matching figures for `Cc1cccc(N2CCC(CC#N)(n3cc(C(N)=O)c(Nc4ccc(F)cc4)n3)CC2)c1F` [Example 3-43, 1-[4-(cyanomethyl)-1-(2-fluoro-3-methylphenyl)piperidin-4-yl]-3-[(4-fluorophenyl)amino]-1H-pyrazole-4-carboxamide]: 10 nM and 295 nM.
`COc1ncc(N2CCC(CC#N)(n3cc(C(N)=O)c(Nc4ccc(F)cc4)n3)CC2)cn1` [Example 3-25, 1-[4-(cyanomethyl)-1-(2-methoxypyrimidin-5-yl)piperidin-4-yl]-3-[(4-fluorophenyl)amino]-1H-pyrazole-4-carboxamide]: the IC50 on JAK1 was 0.7 nM; against JAK2 it was 21 nM.
